Test results as given in US20040248992A1, “Method and composition for inhibiting arteriosclerosis” (KANEKA CORPORATION, priority 2000, published 2004).

Columns and labels:
[1] = Plasma level of the reduced coenzyme Q10 in hamsters on high-fat diet (HPLC); assay type: in vivo
Procedure: Hamsters were fed on a high-fat diet containing 1.5% of cholesterol for one week and, then, a 1% (w/v) solution of either the oxidized or the reduced coenzyme Q10 in olive oil was administered orally for 4 consecutive days. After overnight fasting, the plasma was collected and the reduced coenzyme Q10 in the plasma was assayed by HPLC.

[2] = test system: plasma low-density lipoprotein (LDL); experiment: Antioxidant activity of plasma LDL (lag time of copper-induced conjugated diene formation) in hamsters on high-fat diet; assay type: in vivo; details: 1% (w/v) solution in olive oil plus pravastatin 10 mg/kg orally for 4 consecutive days, LDL 40 μg protein/mL, copper ion 1 μM, 234 nm, n = 3
Procedure: Hamsters were fed on a high-fat diet containing 1.5% of cholesterol for 1 week and, then, dosed orally with a 1% (w/v) solution of either the oxidized or the reduced coenzyme Q10 in olive oil and 10 mg of pravastatin per kg body weight for 4 consecutive days. After overnight fasting, the plasma was collected, the plasma LDL was separated by density-gradient centrifugation method, and as a marker of LDL antioxidant activity, the lag time was measured. The lag time is defined herein as the value found by adding a copper ion (1 μM) to LDL (40 μg protein/mL) and monitoring at 234 nm the time course of conjugated diene structure of oxidized fat/fatty acid resulting from oxidation to determine the time interval until a sharp increase had begun in the conjugated diene concentration.

| Compound | Gain in reduced coenzyme Q10 in plasma ([1]; hamster, in vivo, po, 4 days) [ng/mL] | Gain in reduced coenzyme Q10 in plasma, relative to oxidized coenzyme Q10 group (100%) ([1]; hamster, in vivo, po, 4 days) [%] | Lag time (LDL antioxidant activity) [2] [min] | Gain in reduced coenzyme Q10 in plasma ([1]; hamsters on high-fat diet (1.5% cholesterol, 1 week), 1% (w/v) solution in olive oil orally for 4 consecutive days, plasma after overnight fasting, n = 3) [ng/mL] | Gain in reduced coenzyme Q10 in plasma, relative to oxidized coenzyme Q10 group (100%) ([1]; hamsters on high-fat diet, 1% (w/v) solution in olive oil orally for 4 consecutive days, n = 3) [%] |
| --- | --- | --- | --- | --- | --- |
| COC1=C(OC)C(=O)C(C/C=C(\C)CC/C=C(\C)CC/C=C(\C)CC/C=C(\C)CC/C=C(\C)CC/C=C(\C)CC/C=C(\C)CC/C=C(\C)CC/C=C(\C)CCC=C(C)C)=C(C)C1=O [oxidized coenzyme Q10] | 10.1 | 100 | 25 ± 8 | – | – |
| COc1c(O)c(C)c(C/C=C(\C)CC/C=C(\C)CC/C=C(\C)CC/C=C(\C)CC/C=C(\C)CC/C=C(\C)CC/C=C(\C)CC/C=C(\C)CC/C=C(\C)CCC=C(C)C)c(O)c1OC [reduced coenzyme Q10] | – | – | 44 ± 9 | 14.4 | 143 |
